According to patent US20220339143A1, “TAK-925 FOR USE IN TREATING NARCOLEPSY” (Takeda Pharmaceutical Company Limited, priority 2019, published 2022):
Entries after “also recorded” stand apart in the source; their conditions may differ. Like-named read-outs stand apart in the source and are kept apart here.

Experiment: Single dose PK in healthy subjects (Cohorts 1, 2, S1 and S2), plasma
Type: in vivo, human
Method: This study investigates (i) the safety and tolerability of Compound A (methyl (2R,3S)-3-((methylsulfonyl)amino)-2-(((cis-4-phenylcyclohexyl)oxy)methyl)piperidine-1-carboxylate) when a single dose given as a 9 hour continuous IV infusion is administered to healthy adults, healthy elderly subjects and patients with narcolepsy type 1 (NT1); (ii) the pharmacokinetics of Compound A when a single dose given as a 9 hour continuous IV infusion is administered to healthy adults, healthy elderly subjects and patients with narcolepsy type 1; and (iii) the pharmacodynamics (PD) effects of Compound A, primarily by evaluation of the sleep latency on MWT when a single dose given as a 9 hour continuous IV infusion is administered to patients with narcolepsy type 1.
Pharmacokinetics: Concentrations of Compound A in plasma, and CSF, and pharmacokinetics parameters.
On average, the time to reach the plateau appeared to be approximately 3 to 4 hours after the start of infusion. […] After switching off the IV infusion, Compound A plasma concentrations declined rapidly and in a biphasic manner with a mean terminal disposition phase t1/2z ranging approximately from 3.4 to 5.1 hours across all doses. […] Table 5 provides a summary of plasma concentrations of Compound A after a single IV infusion in healthy subjects. Table 6 provides a summary of pharmacokinetic parameters of Compound A after a single IV infusion in healthy subjects.

[1] = 56 mg, 2 hr After End of Infusion
[2] = 112 mg single IV infusion, healthy subjects
[3] = 112 mg, 0.17 hr After End of Infusion
[4] = 134.4 mg single IV infusion, healthy subjects
[5] = 134.4 mg, 0.17 hr After End of Infusion
[6] = 180 mg single IV infusion, healthy subjects
[7] = 240 mg single IV infusion, healthy subjects
[8] = human, plasma, intravenous, 7 mg, read-out: Plasma concentration, Mean
[9] = human, plasma, intravenous, 7 mg, read-out: Plasma concentration, Median
[10] = human, plasma, intravenous, 7 mg, read-out: Plasma concentration, Minimum
[11] = human, plasma, intravenous, 7 mg, read-out: Plasma concentration, Q1

COC(=O)N1CCC[C@H](NS(C)(=O)=O)[C@@H]1CO[C@H]1CC[C@@H](c2ccccc2)CC1 [Compound A, methyl (2R,3S)-3-((methylsulfonyl)amino)-2-(((cis-4-phenylcyclohexyl)oxy)methyl)piperidine-1-carboxylate]
Plasma concentration, Mean [1]: 21.70 ng/mL
Plasma concentration, Minimum [1]: 15.4 ng/mL
Plasma concentration, Q1 [1]: 15.60 ng/mL
AUCinf D Mean [2]: 18.87 ng·h/mL/mg
AUCinf D Median [2]: 19.25 ng·h/mL/mg
Cmax D Mean [2]: 2.130 ng/mL/mg
Cmax D Median [2]: 2.230 ng/mL/mg
t½z Mean [2]: 3.788 h
t½z Median [2]: 3.370 h
Plasma concentration, Maximum [3]: 138 ng/mL
Plasma concentration, Mean [3]: 126.2 ng/mL
Plasma concentration, Median [3]: 133.0 ng/mL
Plasma concentration, Minimum [3]: 106 ng/mL
Plasma concentration, Q1 [3]: 110.0 ng/mL
Plasma concentration, Q3 [3]: 137.0 ng/mL
Plasma concentration, Maximum (112 mg, Predose): 0.00 ng/mL
Plasma concentration, Median (112 mg, Predose): 0.000 ng/mL
Plasma concentration, Minimum (112 mg, Predose): 0.00 ng/mL
Plasma concentration, Q1 (112 mg, Predose): 0.000 ng/mL
Plasma concentration, Q3 (112 mg, Predose): 0.000 ng/mL
AUCinf D Mean [4]: 20.23 ng·h/mL/mg
AUCinf D Median [4]: 19.95 ng·h/mL/mg
Cmax D Mean [4]: 2.293 ng/mL/mg
Cmax D Median [4]: 2.340 ng/mL/mg
t½z Mean [4]: 3.943 h
t½z Median [4]: 3.760 h
Plasma concentration, Maximum [5]: 255 ng/mL
Plasma concentration, Mean [5]: 181.7 ng/mL
Plasma concentration, Median [5]: 167.5 ng/mL
Plasma concentration, Minimum [5]: 145 ng/mL
Plasma concentration, Q1 [5]: 148.0 ng/mL
Plasma concentration, Q3 [5]: 207.0 ng/mL
Plasma concentration, Maximum (134.4 mg, Predose): 0.00 ng/mL
Plasma concentration, Mean (134.4 mg, Predose): 0.000 ng/mL
Plasma concentration, Median (134.4 mg, Predose): 0.000 ng/mL
Plasma concentration, Minimum (134.4 mg, Predose): 0.00 ng/mL
Plasma concentration, Q1 (134.4 mg, Predose): 0.000 ng/mL
Plasma concentration, Q3 (134.4 mg, Predose): 0.000 ng/mL
AUCinf D Mean [6]: 16.73 ng·h/mL/mg
AUCinf D Median [6]: 16.90 ng·h/mL/mg
Cmax D Mean [6]: 1.918 ng/mL/mg
Cmax D Median [6]: 1.990 ng/mL/mg
t½z Mean [6]: 3.363 h
t½z Median [6]: 3.225 h
AUCinf D Mean [7]: 19.28 ng·h/mL/mg
AUCinf D Median [7]: 18.45 ng·h/mL/mg
Cmax D Mean [7]: 2.133 ng/mL/mg
Cmax D Median [7]: 2.010 ng/mL/mg
Vss Median [7]: 99.25 L
t½z Mean [7]: 4.033 h
t½z Median [7]: 4.230 h
dose proportionality of mean plasma systemic exposure (doses of 7 to 240 mg, healthy adults): increased approximately dose proportionally; also recorded: exhibits linear pharmacokinetics
concentration at 0.33 h after end of infusion [8]: 7.34 ng/mL
concentration at 0.33 h after end of infusion [9]: 7.16 ng/mL
concentration at 0.33 h after end of infusion [10]: 6.28 ng/mL
concentration at 0.33 h after end of infusion [11]: 7.12 ng/mL
concentration at 0.33 h after end of infusion (human, plasma, intravenous, 7 mg, read-out: Plasma concentration, Q3): 7.26 ng/mL
concentration at 0.5 h after end of infusion [8]: 6.73 ng/mL
concentration at 0.5 h after end of infusion [9]: 6.46 ng/mL
concentration at 0.5 h after end of infusion [10]: 6.1 ng/mL
concentration at 0.5 h after end of infusion [11]: 6.26 ng/mL
concentration at 0.5 h (human, plasma, intravenous, 7 mg, 0.5 hr, read-out: Plasma concentration, Maximum): 10.5 ng/mL
concentration at 0.5 h (human, plasma, intravenous, 7 mg, 0.5 hr, read-out: Plasma concentration, Mean): 9.15 ng/mL
concentration at 0.5 h (human, plasma, intravenous, 7 mg, 0.5 hr, read-out: Plasma concentration, Median): 9.54 ng/mL
concentration at 0.5 h (human, plasma, intravenous, 7 mg, 0.5 hr, read-out: Plasma concentration, Minimum): 6.99 ng/mL
concentration at 0.5 hr (human, plasma, intravenous, 7 mg, 0.5 hr, read-out: Plasma concentration, Q1): 7.83 ng/mL
concentration at 0.5 h (human, plasma, intravenous, 7 mg, 0.5 hr, read-out: Plasma concentration, Q3): 10.5 ng/mL
concentration at 0.75 h after end of infusion [8]: 5.55 ng/mL
concentration at 0.75 h after end of infusion [9]: 5.38 ng/mL
concentration at 0.75 h after end of infusion [10]: 5.27 ng/mL
concentration at 0.75 h after end of infusion [11]: 5.35 ng/mL
concentration at 1 h after end of infusion [8]: 4.91 ng/mL
concentration at 1 h after end of infusion [9]: 4.83 ng/mL
concentration at 1 h after end of infusion [10]: 4.34 ng/mL
concentration at 1 h after end of infusion [11]: 4.82 ng/mL
concentration at 1 h (human, plasma, intravenous, 7 mg, 1 hr, read-out: Plasma concentration, Maximum): 15.1 ng/mL
concentration at 1 h (human, plasma, intravenous, 7 mg, 1 hr, read-out: Plasma concentration, Mean): 11.7 ng/mL
concentration at 1 h (human, plasma, intravenous, 7 mg, 1 hr, read-out: Plasma concentration, Median): 11.9 ng/mL
concentration at 1 h (human, plasma, intravenous, 7 mg, 1 hr, read-out: Plasma concentration, Minimum): 8.68 ng/mL
concentration at 1 hr (human, plasma, intravenous, 7 mg, 1 hr, read-out: Plasma concentration, Q1): 9.45 ng/mL
concentration at 1 h (human, plasma, intravenous, 7 mg, 1 hr, read-out: Plasma concentration, Q3): 13.2 ng/mL
concentration at 1.5 h after end of infusion [8]: 4.25 ng/mL
concentration at 1.5 h after end of infusion [9]: 4.5 ng/mL
concentration at 1.5 h after end of infusion [10]: 3.27 ng/mL
concentration at 1.5 h after end of infusion [11]: 4.15 ng/mL
concentration at 1.5 h (human, plasma, intravenous, 7 mg, 1.5 hr, read-out: Plasma concentration, Maximum): 17.6 ng/mL
concentration at 1.5 h (human, plasma, intravenous, 7 mg, 1.5 hr, read-out: Plasma concentration, Mean): 13.1 ng/mL
concentration at 1.5 h (human, plasma, intravenous, 7 mg, 1.5 hr, read-out: Plasma concentration, Median): 13 ng/mL
concentration at 1.5 h (human, plasma, intravenous, 7 mg, 1.5 hr, read-out: Plasma concentration, Minimum): 8.96 ng/mL
concentration at 1.5 hr (human, plasma, intravenous, 7 mg, 1.5 hr, read-out: Plasma concentration, Q1): 12 ng/mL
concentration at 1.5 h (human, plasma, intravenous, 7 mg, 1.5 hr, read-out: Plasma concentration, Q3): 14 ng/mL
concentration at 2 h (human, plasma, intravenous, 7 mg, 2 hr, read-out: Plasma concentration, Maximum): 18.5 ng/mL
concentration at 2 h (human, plasma, intravenous, 7 mg, 2 hr, read-out: Plasma concentration, Mean): 14.8 ng/mL
concentration at 2 h (human, plasma, intravenous, 7 mg, 2 hr, read-out: Plasma concentration, Median): 14.9 ng/mL
concentration at 2 h (human, plasma, intravenous, 7 mg, 2 hr, read-out: Plasma concentration, Minimum): 10.9 ng/mL
concentration at 2 hr (human, plasma, intravenous, 7 mg, 2 hr, read-out: Plasma concentration, Q1): 12.8 ng/mL
concentration at 2 h (human, plasma, intravenous, 7 mg, 2 hr, read-out: Plasma concentration, Q3): 16.5 ng/mL
concentration at 3 h (human, plasma, intravenous, 7 mg, read-out: Plasma concentration, Maximum): 20.2 ng/mL
concentration at 3 h [8]: 16.5 ng/mL
concentration at 3 h [9]: 15.8 ng/mL
concentration at 3 h [10]: 13.2 ng/mL
